Publication PMC5779714, “Metallochaperone UreG serves as a new target for design of urease inhibitor: A novel strategy for development of antimicrobials” (PLoS Biology, 2018)
Several values for one entry are separate records, joined by “and”; a condition that tells them apart may be missing. Equal entries are not always repeated. Where two headings read alike, the source gives them in different places.

Key:
UreG = UreG (Helicobacter pylori, UniProt Q09066); assay: Fluorescence-quenching titration of UreG (Kd); type: binding, H. pylori
Description: Using the relation between the emission intensity at 310 nm and molecule-UreG–bound species, as well as one site-binding model, the Kd values were calculated by a logistic regression model referring to a previous report. […] All fluorescence readings were corrected for the dilution effect.

urease [1] = target: T1, urease (Proteus mirabilis, UniProt P17086+P17087+P17088); type: biochemical
T1 construct: endogenous in cells

urease [2] = target: T2, urease (Pseudomonas aeruginosa, UniProt Q9HUU5+Q9HUU6+Q9HUU8); assay: Urease activity of extracted P. aeruginosa urease (in vitro); type: biochemical
T2 construct: endogenous in cells

urease [3] = system: urease
urease [4] = system: urease; remark: listed apart in the source
urease [5] = system: urease; remark: listed apart in the source
urease [6] = system: urease; remark: listed apart in the source
[7] = system: AGS cells exposed to H. pylori; assay: Cell infection model: AGS cells exposed to H. pylori pre-cultured with inhibitors; type: cell-based, human; details: H. pylori pre-cultured with 10 μM inhibitor 24 h; MOI 20; 24 h infection; Hp alone 28.8%
[8] = system: AGS cells with H. pylori infection; assay: AGS cells with H. pylori infection, inhibitors administrated to the AGS cells (S20 Fig); type: cell-based, human; details: 10 μM administrated to AGS cells with H. pylori infection
Text: As expected, low viability of AGS with the supplement of cmpd4 and cmpd8 was observed due to the toxicity of small compounds to mammalian cells. […] (PNG) Click here for additional data file.

H. pylori urease [9] = target: H. pylori urease (Helicobacter pylori, UniProt P14916+P69996); type: biochemical; set-up: endogenous in cells; host or cells: H. pylori strain 26695 or a clinical isolate
H. pylori urease [10] = details: for Normalized urease activity(%): 40 min
Text: The starting sample with 20% urease activity was used. […] Because zero is not defined on a log scale, the blank values have been entered as 0.1.

Chain of H. pylori urease (Helicobacter pylori, UniProt P14916+P69996) (P69996 whole entry): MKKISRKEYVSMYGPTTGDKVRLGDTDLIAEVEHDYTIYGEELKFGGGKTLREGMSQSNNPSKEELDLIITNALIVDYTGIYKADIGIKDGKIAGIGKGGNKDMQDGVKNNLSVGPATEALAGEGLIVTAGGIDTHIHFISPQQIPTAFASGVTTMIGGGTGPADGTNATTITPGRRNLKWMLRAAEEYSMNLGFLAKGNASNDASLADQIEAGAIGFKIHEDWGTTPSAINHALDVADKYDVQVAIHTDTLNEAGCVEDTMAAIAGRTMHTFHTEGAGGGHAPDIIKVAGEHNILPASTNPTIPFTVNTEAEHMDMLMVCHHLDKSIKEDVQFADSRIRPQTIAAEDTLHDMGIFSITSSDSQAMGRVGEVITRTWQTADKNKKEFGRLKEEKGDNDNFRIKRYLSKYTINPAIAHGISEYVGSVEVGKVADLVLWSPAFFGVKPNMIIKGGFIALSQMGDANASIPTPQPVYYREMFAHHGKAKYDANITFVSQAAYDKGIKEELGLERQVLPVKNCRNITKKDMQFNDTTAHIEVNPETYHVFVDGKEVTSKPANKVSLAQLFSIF
Chain of H. pylori urease (Helicobacter pylori, UniProt P14916+P69996) (P14916 whole entry): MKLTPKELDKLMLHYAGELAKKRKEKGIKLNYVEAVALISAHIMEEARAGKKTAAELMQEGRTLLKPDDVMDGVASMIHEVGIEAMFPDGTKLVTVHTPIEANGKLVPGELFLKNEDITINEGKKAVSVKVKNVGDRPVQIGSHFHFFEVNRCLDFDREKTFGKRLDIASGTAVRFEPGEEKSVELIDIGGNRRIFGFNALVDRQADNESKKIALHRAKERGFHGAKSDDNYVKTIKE
T1 sequence (P17087 whole entry): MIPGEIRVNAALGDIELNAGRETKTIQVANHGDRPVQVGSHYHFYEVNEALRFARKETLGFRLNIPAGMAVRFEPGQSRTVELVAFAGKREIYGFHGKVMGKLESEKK
T1 sequence (P17088 whole entry): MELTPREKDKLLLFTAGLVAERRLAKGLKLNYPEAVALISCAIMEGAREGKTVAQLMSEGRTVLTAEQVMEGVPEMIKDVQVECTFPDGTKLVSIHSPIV
T1 sequence (P17086 whole entry): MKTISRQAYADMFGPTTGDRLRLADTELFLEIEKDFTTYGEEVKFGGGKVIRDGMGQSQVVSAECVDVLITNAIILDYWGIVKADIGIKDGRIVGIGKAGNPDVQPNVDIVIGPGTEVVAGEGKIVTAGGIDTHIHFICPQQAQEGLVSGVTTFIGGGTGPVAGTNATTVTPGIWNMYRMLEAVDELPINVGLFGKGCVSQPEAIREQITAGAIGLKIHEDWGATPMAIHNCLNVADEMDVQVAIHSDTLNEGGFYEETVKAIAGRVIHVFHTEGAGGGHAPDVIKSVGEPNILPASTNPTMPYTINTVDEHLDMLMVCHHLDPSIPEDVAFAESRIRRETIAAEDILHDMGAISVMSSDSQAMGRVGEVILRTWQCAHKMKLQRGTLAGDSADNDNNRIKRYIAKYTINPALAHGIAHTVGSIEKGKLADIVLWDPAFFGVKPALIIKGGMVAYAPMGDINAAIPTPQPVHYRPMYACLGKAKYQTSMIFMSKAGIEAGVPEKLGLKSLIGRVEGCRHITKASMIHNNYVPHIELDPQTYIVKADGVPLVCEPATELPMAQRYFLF
Chain of UreG (Q09066 whole entry): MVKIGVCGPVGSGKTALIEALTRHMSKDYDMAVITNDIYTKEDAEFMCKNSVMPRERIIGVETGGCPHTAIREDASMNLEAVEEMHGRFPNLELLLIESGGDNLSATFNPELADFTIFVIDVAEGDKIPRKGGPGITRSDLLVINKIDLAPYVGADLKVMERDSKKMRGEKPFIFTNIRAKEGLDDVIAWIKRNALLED
T2 sequence (Q9HUU6 whole entry): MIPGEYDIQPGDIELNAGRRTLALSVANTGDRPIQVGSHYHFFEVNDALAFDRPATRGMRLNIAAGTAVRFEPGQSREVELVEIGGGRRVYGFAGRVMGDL
T2 sequence (Q9HUU5 whole entry): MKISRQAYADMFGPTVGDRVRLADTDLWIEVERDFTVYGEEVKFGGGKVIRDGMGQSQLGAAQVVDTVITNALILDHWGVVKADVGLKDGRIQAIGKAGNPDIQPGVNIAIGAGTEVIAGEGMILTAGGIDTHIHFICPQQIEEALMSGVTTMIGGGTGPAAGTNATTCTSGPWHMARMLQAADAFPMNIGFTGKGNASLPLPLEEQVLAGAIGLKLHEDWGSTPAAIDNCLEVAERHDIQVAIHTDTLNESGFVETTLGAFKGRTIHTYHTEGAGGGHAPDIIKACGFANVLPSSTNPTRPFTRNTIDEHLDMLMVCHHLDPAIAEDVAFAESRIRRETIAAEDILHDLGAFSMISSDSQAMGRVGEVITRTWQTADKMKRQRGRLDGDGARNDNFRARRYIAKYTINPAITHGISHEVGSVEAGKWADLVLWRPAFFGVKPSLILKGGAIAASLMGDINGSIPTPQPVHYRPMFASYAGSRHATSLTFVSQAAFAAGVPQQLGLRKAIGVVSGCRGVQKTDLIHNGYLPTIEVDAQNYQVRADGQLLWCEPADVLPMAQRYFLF
T2 sequence (Q9HUU8 whole entry): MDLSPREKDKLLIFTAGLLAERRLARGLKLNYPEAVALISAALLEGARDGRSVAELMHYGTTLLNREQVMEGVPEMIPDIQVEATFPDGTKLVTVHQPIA

Nc1nc2c(ncn2[C@@H]2O[C@H](COP(=O)(O)OP(=O)(O)OP(=O)(O)O)[C@@H](O)[C@H]2O)c(=O)[nH]1 [GTP, guanosine-5'-triphosphate, reference compound] was tested, and the Kd (UreG) was roughly 65 µM, the “fluorescence intensity (a.u.)” value (UreG; log(ligand[μM]) 0) was 3320 a.u and the “fluorescence intensity (a.u.)” value (UreG; log(ligand[μM]) 0.30103) was 3210 a.u. For the same compound, the “fluorescence intensity (a.u.)” value (UreG; log(ligand[μM]) 0.60206) was 2994.67 a.u, the “fluorescence intensity (a.u.)” value (UreG; log(ligand[μM]) 0.90309) was 2943.33 a.u and the “fluorescence intensity (a.u.)” value (UreG; log(ligand[μM]) 1.20412) was 2860.67 a.u. For the same compound, the “fluorescence intensity (a.u.)” value (UreG; log(ligand[μM]) 1.50515) was 2655 a.u, the “fluorescence intensity (a.u.)” value (UreG; log(ligand[μM]) 1.80618) was 2320.33 a.u and the “fluorescence intensity (a.u.)” value (UreG; log(ligand[μM]) 2.10721) was 1866.33 a.u. The “fluorescence intensity (a.u.)” value (UreG; log(ligand[μM]) -1.30103) was 3394.33 a.u.
With CC(=O)NO [AHA, acetohydroxamic acid] the “Normalized urease activity(%)” value (urease [1]; log(AHA[μM]) 1.29073) was 83.9311%, the “Normalized urease activity(%)” value (urease [1]; log(AHA[μM]) 1.59176) was 78.3381% and the “Normalized urease activity(%)” value (urease [1]; log(AHA[μM]) 1.89279) was 61.9141%. The “Normalized urease activity(%)” value (urease [1]; log(AHA[μM]) 2.19382) was 45.934%, the “Normalized urease activity(%)” value (urease [1]; log(AHA[μM]) 2.49485) was 31.2855% and the “Normalized urease activity(%)” value (urease [1]; log(AHA[μM]) 2.79588) was 25.6037%. For the same compound, the “Normalized urease activity(%)” value (urease [1]; log(AHA[μM]) 3.09691) was 17.6136%, the “Normalized urease activity(%)” value (urease [1]; log(AHA[μM]) 3.39794) was 16.1932% and the “Normalized urease activity(%)” value (urease [1]; log(AHA[μM]) 3.69897) was 12.3757%. The “Normalized urease activity(%)” value (urease [1]; log(AHA[μM]) 4) was 7.315%, the “Normalized urease activity(%)” value (urease [2]; log(AHA[μM]) 1.79588) was 78.186% and the “Normalized urease activity(%)” value (urease [2]; log(AHA[μM]) 2.09691) was 95.4076%. For the same compound, the “Normalized urease activity(%)” value (urease [2]; log(AHA[μM]) 2.39794) was 91.1022%, the “Normalized urease activity(%)” value (urease [2]; log(AHA[μM]) 2.69897) was 92.2503% and the “Normalized urease activity(%)” value (urease [2]; log(AHA[μM]) 3) was 91.3892%. The “Normalized urease activity(%)” value (urease [2]; log(AHA[μM]) 3.30103) was 81.0563%, the “Normalized urease activity(%)” value (urease [2]; log(AHA[μM]) 3.60206) was 50.3444% and the “Normalized urease activity(%)” value (urease [2]; log(AHA[μM]) 3.90309) was 18.7715%. For the same compound, the “Normalized urease activity(%)” value (urease [2]; log(AHA[μM]) 4.20412) was 5.568%, the “Normalized urease activity(%)” value (urease [2]; log(AHA[μM]) 4.50515) was 3.846% and the “Normalized urease activity(%)” value (urease [3]; log(AHA[μM]) 1.39794) was 85.3556%. For the same compound, the “Normalized urease activity(%)” value (urease [3]; log(AHA[μM]) 2.09691) was 97.9079%, the “Normalized urease activity(%)” value (urease [3]; log(AHA[μM]) 2.39794) was 94.4212% and the “Normalized urease activity(%)” value (urease [3]; log(AHA[μM]) 2.69897) was 97.2106%. For the same compound, the “Normalized urease activity(%)” value (urease [3]; log(AHA[μM]) 3) was 105.579%, the “Normalized urease activity(%)” value (urease [3]; log(AHA[μM]) 3.30103) was 100% and the “Normalized urease activity(%)” value (urease [3]; log(AHA[μM]) 3.60206) was 74.198%. The “Normalized urease activity(%)” value (urease [3]; log(AHA[μM]) 3.90309) was 38.6332%, the “Normalized urease activity(%)” value (urease [3]; log(AHA[μM]) 4.20412) was 16.318% and the “Normalized urease activity(%)” value (urease [3]; log(AHA[μM]) 4.50515) was 9.344%. For the same compound, the “Normalized urease activity(%)” value (urease [4]; log(AHA[μM]) 1.79588) was 92.5521%, the “Normalized urease activity(%)” value (urease [4]; log(AHA[μM]) 2.09691) was 93.0486% and the “Normalized urease activity(%)” value (urease [4]; log(AHA[μM]) 2.39794) was 89.0764%. For the same compound, the “Normalized urease activity(%)” value (urease [4]; log(AHA[μM]) 2.69897) was 86.0973%, the “Normalized urease activity(%)” value (urease [4]; log(AHA[μM]) 3) was 82.6216% and the “Normalized urease activity(%)” value (urease [4]; log(AHA[μM]) 3.30103) was 72.6911%. For the same compound, the “Normalized urease activity(%)” value (urease [4]; log(AHA[μM]) 3.60206) was 51.3406%, the “Normalized urease activity(%)” value (urease [4]; log(AHA[μM]) 3.90309) was 15.0943% and the “Normalized urease activity(%)” value (urease [4]; log(AHA[μM]) 4.20412) was 3.674%. The “Normalized urease activity(%)” value (urease [4]; log(AHA[μM]) 4.50515) was 1.688%, the “Normalized urease activity(%)” value (urease [5]; log(AHA[μM]) 1.79588) was 92.1939% and the “Normalized urease activity(%)” value (urease [5]; log(AHA[μM]) 2.09691) was 91.7831%. The “Normalized urease activity(%)” value (urease [5]; log(AHA[μM]) 2.39794) was 89.7288%, the “Normalized urease activity(%)” value (urease [5]; log(AHA[μM]) 2.69897) was 88.9071% and the “Normalized urease activity(%)” value (urease [5]; log(AHA[μM]) 3) was 90.1397%. The “Normalized urease activity(%)” value (urease [5]; log(AHA[μM]) 3.30103) was 80.6902%, the “Normalized urease activity(%)” value (urease [5]; log(AHA[μM]) 3.60206) was 55.6286% and the “Normalized urease activity(%)” value (urease [5]; log(AHA[μM]) 3.90309) was 27.691%. The “Normalized urease activity(%)” value (urease [5]; log(AHA[μM]) 4.20412) was 14.1331%, the “Normalized urease activity(%)” value (urease [5]; log(AHA[μM]) 4.50515) was 10.8463% and the “Normalized urease activity(%)” value (urease [6]; log(AHA[μM]) 1.79588) was 82.0618%. The “Normalized urease activity(%)” value (urease [6]; log(AHA[μM]) 2.09691) was 76.8393%, the “Normalized urease activity(%)” value (urease [6]; log(AHA[μM]) 2.39794) was 67.9837% and the “Normalized urease activity(%)” value (urease [6]; log(AHA[μM]) 2.69897) was 58.901%. The “Normalized urease activity(%)” value (urease [6]; log(AHA[μM]) 3) was 52.7702%, the “Normalized urease activity(%)” value (urease [6]; log(AHA[μM]) 3.30103) was 45.277% and the “Normalized urease activity(%)” value (urease [6]; log(AHA[μM]) 3.60206) was 27.5659%. For the same compound, the “Normalized urease activity(%)” value (urease [6]; log(AHA[μM]) 3.90309) was 11.6712%, the “Normalized urease activity(%)” value (urease [6]; log(AHA[μM]) 4.20412) was 3.951% and the “Normalized urease activity(%)” value (urease [6]; log(AHA[μM]) 4.50515) was 2.589%. The “Normalized cell survival (%)” value [7] was 40.5% ± 8.2% and 40.5405%, the “Ammonia in medium” value [8] was 2.273 mM and the “Normalized cell survival (%)” value [8] was 14.4144%. For the same compound, the IC50 (H. pylori urease [9]; AHA incubated with extracted urease, ± SD) was 1320 ± 291 µM, the “Normalized urease activity(%) (AHA)” value (H. pylori urease [9]; AHA log[μM] 1.89279) was 109.4% and 109.395% and the “Normalized urease activity(%) (AHA)” value (H. pylori urease [9]; AHA log[μM] 2.19382) was 96.0% and 96.0334%. For the same compound, the “Normalized urease activity(%) (AHA)” value (H. pylori urease [9]; AHA log[μM] 2.49485) was 91.9% and 91.858%, the “Normalized urease activity(%) (AHA)” value (H. pylori urease [9]; AHA log[μM] 2.79588) was 93.3% and 93.3194% and the “Normalized urease activity(%) (AHA)” value (H. pylori urease [9]; AHA log[μM] 3.09691) was 51.1% and 51.1482%. The “Normalized urease activity(%) (AHA)” value (H. pylori urease [9]; AHA log[μM] 3.39794) was 20.5% and 20.4593%, the “Normalized urease activity(%) (AHA)” value (H. pylori urease [9]; AHA log[μM] 3.69897) was 2.7% and 2.714% and the “Normalized urease activity(%) (AHA)” value (H. pylori urease [9]; AHA log[μM] 4) was 1.3% and 1.253%. The “Normalized urease activity(%) (AHA)” value (H. pylori urease [9]; AHA log[μM] 4.30103) was 1.3% and 1.253%.
For [Ni+2] [Ni], the “Normalized urease activity(%)” value (H. pylori urease [10]; supplement 0.05 (head prints CBS(μM )), starting sample 20% activity) was 19.0%, the “Normalized urease activity(%)” value (H. pylori urease [10]; supplement 0.1 (head prints CBS(μM ))) was 18.6% and the “Normalized urease activity(%)” value (H. pylori urease [10]; supplement 0.2 (head prints CBS(μM ))) was 18.3%. The “Normalized urease activity(%)” value (H. pylori urease [10]; supplement 0.4 (head prints CBS(μM ))) was 17.5% and the “restoration of urease activity” value (H. pylori urease [10]; supplemented to CBS-treated bacterial cell lysate) was “failed to restore the urease activity completely”.
